{
  "source": "patent EP3501609A1",
  "about": "(Zentiva K.S., priority 2017, dated 2019)",
  "origin": "cited, not measured here",
  "data": [
    {"compound": "C=CC(=O)N1CCC[C@@H](n2nc(-c3ccc(Oc4ccccc4)cc3)c3c(N)ncnc32)C1", "note": "[ibrutinib form A]", "values": [
      {"measurement": "solubility", "setting": "pH 1.2", "result": "poorly soluble"},
      {"measurement": "solubility in water", "setting": "pH range of 4.5-8", "result": "virtually insoluble"}
    ]}
  ]
}
